Counter-ions that a name gives are not always drawn. ± gives the standard deviation of the averaged measurements.
How the values were obtained:
Vero E6 [1] = test: cytotoxicity relative to untreated cell control; higher = more toxic; details: 72 h, assay detail: uninfected
Description: (§1)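 Vero E6 C1008 cells (2e4 cells/well) were treated with a 3-fold dilution series of each drug (monotherapy), with or without live SARS-CoV-2 (propagated original strain, 100 TCID50). After 72 h at 37 °C, viability was read with Viral ToxGlo (ATP luminescence). %Inhibition of virus-induced CPE and %Cytotoxicity (uninfected) were normalised to cell and virus controls. Triplicates. The paper excluded %Inhibition points with >25% cytotoxicity from its curve fits.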

Vero E6 [2] = test: inhibition of SARS-CoV-2-induced cytopathic effect relative to cell and virus controls; higher = more antiviral protection; details: 72 h, virus: SARS-CoV-2 propagated original strain, 100 TCID50, assay detail: infected
Description: as §1

O=c1nc(NO)ccn1[C@@H]1O[C@H](CO)[C@@H](O)[C@H]1O [EIDD-1931]
Details	cytotoxicity, Vero E6 [1] [%]	inhibition of SARS-CoV-2-induced cytopathic effect, Vero E6 [2] [%]
56.45 pM	-9.83 ± 7.4	-1.26 ± 1.9
0.000169351 µM	-16.6 ± 5.9	0.00675 ± 3
0.000508053 µM	-20 ± 1.8	0.0533 ± 0.39
0.00152416 µM	-19.1 ± 1.4	0.601 ± 1.1
0.00457247 µM	-16.2 ± 4	-0.506 ± 1.3
0.0137174 µM	-14.9 ± 3.3	-0.261 ± 0.77
0.0411523 µM	-10.5 ± 15	-0.787 ± 1.6
0.123457 µM	-12.1 ± 5.8	3.32 ± 2.9
0.37037 µM	-7.1 ± 3.5	13.2 ± 0.86
1.11111 µM	-15.6 ± 2.5	57.5 ± 4.3
3.33333 µM	7.25 ± 3.6	78.3 ± 1.5
10 µM	25.9 ± 2.2	70.6 ± 1.6

CCc1c2c(nc3ccc(O)cc13)-c1cc3c(c(=O)n1C2)COC(=O)[C@]3(O)CC [SN-38]
Details	cytotoxicity, Vero E6 [1] [%]	inhibition of SARS-CoV-2-induced cytopathic effect, Vero E6 [2] [%]
56.45 pM	-12.2 ± 4	-1.53 ± 1.2
0.000169351 µM	-12.8 ± 1.2	-0.815 ± 1.2
0.000508053 µM	-9.63 ± 4.5	-0.975 ± 0.93
0.00152416 µM	-8.98 ± 5.2	-2.92 ± 1.5
0.00457247 µM	-9.11 ± 3.9	-3.61 ± 0.72
0.0137174 µM	-9.99 ± 3.2	-6.1 ± 1.1
0.0411523 µM	5.49 ± 1.8	-10.4 ± 1.1
0.123457 µM	1.29 ± 5.6	-10.9 ± 1.3
0.37037 µM	1.32 ± 5.8	-11.1 ± 0.12
1.11111 µM	6.01 ± 4.5	-10.4 ± 0.52
3.33333 µM	43.6 ± 2.1	-14.8 ± 0.46
10 µM	82.6 ± 1.2	-17.4 ± 0.36

CCS(=O)(=O)N1CC(CC#N)(n2cc(-c3ncnc4[nH]ccc34)cn2)C1 [baricitinib]
Details	cytotoxicity, Vero E6 [1] [%]	inhibition of SARS-CoV-2-induced cytopathic effect, Vero E6 [2] [%]
56.45 pM	-23.8 ± 2.7	0.443 ± 1.1
0.000169351 µM	-24.9 ± 6.2	-0.597 ± 0.76
0.000508053 µM	-20.2 ± 4.5	1.73 ± 0.91
0.00152416 µM	-17.5 ± 3.1	0.473 ± 0.57
0.00457247 µM	-20.6 ± 5.6	0.0832 ± 0.89
0.0137174 µM	-15.3 ± 5.8	-0.169 ± 1.2
0.0411523 µM	-17.8 ± 3.3	-0.529 ± 0.88
0.123457 µM	-13.4 ± 2.3	-0.177 ± 1.5
0.37037 µM	-9.61 ± 0.59	0.117 ± 0.97
1.11111 µM	-14 ± 4.5	-1.55 ± 1.5
3.33333 µM	-9.73 ± 1.8	-2.06 ± 0.42
10 µM	-10.3 ± 3.5	-1.06 ± 0.97

O=c1c2ccccc2[se]n1-c1ccccc1 [ebselen]
Details	cytotoxicity, Vero E6 [1] [%]	inhibition of SARS-CoV-2-induced cytopathic effect, Vero E6 [2] [%]
56.45 pM	-9.38 ± 4.1	0.954 ± 0.61
0.000169351 µM	-15.3 ± 3.5	-0.438 ± 1.1
0.000508053 µM	-9.41 ± 1.5	-0.0732 ± 1.1
0.00152416 µM	-4.85 ± 2.3	-0.949 ± 0.44
0.00457247 µM	-3.63 ± 6	-0.344 ± 1.1
0.0137174 µM	-5.61 ± 6.4	-0.6 ± 1.6
0.0411523 µM	-10.3 ± 0.24	-1.57 ± 0.16
0.123457 µM	-6.66 ± 3.9	0.817 ± 0.74
0.37037 µM	-2.52 ± 2.6	0.828 ± 2.2
1.11111 µM	-1.45 ± 4.3	1.82 ± 1.7
3.33333 µM	2.92 ± 2.2	6.69 ± 0.55
10 µM	17.6 ± 1.9	71.3 ± 17

Cc1ccc(NC(=O)c2ccc(CN3CCN(C)CC3)cc2)cc1Nc1nccc(-c2cccnc2)n1 [imatinib mesylate]
Details	cytotoxicity, Vero E6 [1] [%]	inhibition of SARS-CoV-2-induced cytopathic effect, Vero E6 [2] [%]
0.000564503 µM	4.59 ± 4.4	0.0871 ± 1.7
0.00169351 µM	-0.227 ± 6.9	-0.274 ± 1
0.00508053 µM	-4.57 ± 0.2	-1.02 ± 0.64
0.0152416 µM	-8.01 ± 1.7	-0.646 ± 1.2
0.0457247 µM	-4.41 ± 6.5	-1.84 ± 0.3
0.137174 µM	-4.39 ± 4.3	-1.94 ± 1.1
0.411523 µM	-6.59 ± 3.6	-2 ± 0.63
1.23457 µM	-4.79 ± 0.57	1.61 ± 0.97
3.7037 µM	-6.93 ± 2	18 ± 2.5
11.1111 µM	9.9 ± 1	102 ± 3
33.3333 µM	61.8 ± 2.1	48.6 ± 3.6
100 µM	99.785 ± 0.0083	-17.3 ± 0.3

Cc1cccc(C)c1OCC(=O)N[C@@H](Cc1ccccc1)[C@@H](O)C[C@H](Cc1ccccc1)NC(=O)[C@H](C(C)C)N1CCCNC1=O [lopinavir]
Details	cytotoxicity, Vero E6 [1] [%]	inhibition of SARS-CoV-2-induced cytopathic effect, Vero E6 [2] [%]
0.00112901 µM	8.74 ± 4.1	2.06 ± 1.6
0.00338702 µM	6.74 ± 4.2	1.04 ± 0.76
0.0101611 µM	-8.25 ± 4.7	1.48 ± 0.77
0.0304832 µM	-3.94 ± 6.2	0.483 ± 1.1
0.0914495 µM	-7.05 ± 1.1	1.04 ± 1.5
0.274348 µM	-5.02 ± 0.94	2.11 ± 1.1
0.823045 µM	-7.06 ± 1.3	1.91 ± 0.61
2.46914 µM	-5.88 ± 8.8	1.69 ± 1.3
7.40741 µM	-25.7 ± 5.6	2.75 ± 0.88
22.2222 µM	25.9 ± 11	72.7 ± 2.5
66.6667 µM	99.066 ± 0.011	-14.47 ± 0.058
200 µM	99.504 ± 0.095	-14.97 ± 0.075
